Read-outs that look alike come from different tables or passages of the source.
Assays:
Experiment in all cases: TGFα-shedding assay-based GPCR screening with chimeric Gα subunit proteins
Type in all cases: cell-based
[1] = target: T1, 348 GPCRs (Homo sapiens, UniProt P49238); settings: GPCR CX3CR1 (chemokine (C-X3-C motif) receptor 1)
T1 construct: expressed in transfected cells; host or cells: HEK293A
T1 sequence (P49238 1-355): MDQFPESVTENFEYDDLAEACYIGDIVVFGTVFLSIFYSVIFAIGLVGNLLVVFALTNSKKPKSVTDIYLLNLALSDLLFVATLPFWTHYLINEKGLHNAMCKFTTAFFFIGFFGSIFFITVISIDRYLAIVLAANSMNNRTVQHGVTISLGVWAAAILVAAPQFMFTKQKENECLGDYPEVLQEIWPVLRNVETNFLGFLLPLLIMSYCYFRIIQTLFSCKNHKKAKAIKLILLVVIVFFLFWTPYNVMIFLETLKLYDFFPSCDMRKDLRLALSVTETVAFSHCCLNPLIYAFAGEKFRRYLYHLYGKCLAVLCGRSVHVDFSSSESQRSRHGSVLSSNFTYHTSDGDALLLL

[2] = target: T2, 348 GPCRs (Homo sapiens, UniProt Q9HBW9); settings: 10µM, Favipiravir 100μM
T2 construct: expressed in transfected cells; host or cells: HEK293A
T2 sequence (Q9HBW9 20-690): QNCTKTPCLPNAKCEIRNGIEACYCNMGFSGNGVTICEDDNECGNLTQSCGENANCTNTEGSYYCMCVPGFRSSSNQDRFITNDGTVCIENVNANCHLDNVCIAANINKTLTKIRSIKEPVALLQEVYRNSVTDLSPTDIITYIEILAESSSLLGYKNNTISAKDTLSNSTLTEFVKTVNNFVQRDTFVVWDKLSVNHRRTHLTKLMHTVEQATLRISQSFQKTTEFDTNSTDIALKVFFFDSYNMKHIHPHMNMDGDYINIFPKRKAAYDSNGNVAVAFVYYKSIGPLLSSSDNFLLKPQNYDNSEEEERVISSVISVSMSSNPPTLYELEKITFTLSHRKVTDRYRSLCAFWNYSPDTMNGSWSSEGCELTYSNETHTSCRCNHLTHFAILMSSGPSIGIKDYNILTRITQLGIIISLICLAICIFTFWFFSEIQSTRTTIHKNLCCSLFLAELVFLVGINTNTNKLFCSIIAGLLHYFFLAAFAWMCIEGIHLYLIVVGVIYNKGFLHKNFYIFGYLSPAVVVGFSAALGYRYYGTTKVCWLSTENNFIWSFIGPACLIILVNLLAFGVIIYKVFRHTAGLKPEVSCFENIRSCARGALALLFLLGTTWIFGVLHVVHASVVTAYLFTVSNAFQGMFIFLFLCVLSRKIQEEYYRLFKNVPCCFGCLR

[3] = target: T3, 348 GPCRs (Homo sapiens, UniProt Q9NYM4); settings: 10µM, Favipiravir 100μM
T3 construct: expressed in transfected cells; host or cells: HEK293A

[4] = target: T4, 348 GPCRs (Homo sapiens, UniProt P25100)
T4 construct: expressed in transfected cells; host or cells: HEK293A
T4 sequence (P25100 1-572): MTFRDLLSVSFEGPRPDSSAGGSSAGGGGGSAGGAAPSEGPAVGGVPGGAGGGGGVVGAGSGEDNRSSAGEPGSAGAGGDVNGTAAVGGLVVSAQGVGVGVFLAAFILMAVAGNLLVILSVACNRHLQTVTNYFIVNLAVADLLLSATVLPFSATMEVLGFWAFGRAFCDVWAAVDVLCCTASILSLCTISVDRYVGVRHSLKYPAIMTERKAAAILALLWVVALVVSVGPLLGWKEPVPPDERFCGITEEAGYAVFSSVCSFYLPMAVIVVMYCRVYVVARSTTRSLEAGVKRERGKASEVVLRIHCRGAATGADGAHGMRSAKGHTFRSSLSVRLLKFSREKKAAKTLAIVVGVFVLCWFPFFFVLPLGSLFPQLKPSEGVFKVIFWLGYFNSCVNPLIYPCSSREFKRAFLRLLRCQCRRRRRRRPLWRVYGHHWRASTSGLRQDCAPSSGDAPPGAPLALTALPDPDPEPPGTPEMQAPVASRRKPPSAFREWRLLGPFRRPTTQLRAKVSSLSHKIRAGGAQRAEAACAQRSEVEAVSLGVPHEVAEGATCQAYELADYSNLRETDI

[5] = target: T5, 348 GPCRs (Homo sapiens, UniProt P48146); settings: 10µM, Favipiravir 100μM
T5 construct: expressed in transfected cells; host or cells: HEK293A

[6] = target: T6, 348 GPCRs (Homo sapiens, UniProt O15354); settings: 10µM, Favipiravir 100μM
T6 construct: expressed in transfected cells; host or cells: HEK293A
T6 sequence (O15354 27-613): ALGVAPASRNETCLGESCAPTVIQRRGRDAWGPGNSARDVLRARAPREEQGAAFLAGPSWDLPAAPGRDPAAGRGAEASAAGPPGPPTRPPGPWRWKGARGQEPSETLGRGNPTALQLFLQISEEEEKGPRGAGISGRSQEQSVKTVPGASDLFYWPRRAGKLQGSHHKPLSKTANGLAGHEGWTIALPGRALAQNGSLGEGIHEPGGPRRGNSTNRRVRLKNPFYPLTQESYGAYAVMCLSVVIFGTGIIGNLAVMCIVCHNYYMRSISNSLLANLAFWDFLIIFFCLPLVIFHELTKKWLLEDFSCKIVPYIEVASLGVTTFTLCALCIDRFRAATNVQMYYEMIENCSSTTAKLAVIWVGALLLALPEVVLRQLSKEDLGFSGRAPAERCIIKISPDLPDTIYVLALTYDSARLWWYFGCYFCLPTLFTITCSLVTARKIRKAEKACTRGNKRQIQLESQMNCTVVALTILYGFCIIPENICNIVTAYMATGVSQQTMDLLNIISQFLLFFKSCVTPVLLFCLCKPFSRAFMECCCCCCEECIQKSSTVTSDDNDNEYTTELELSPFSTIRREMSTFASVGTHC

[7] = ELTD1 (EGF, latrophilin and seven transmembrane domain containing 1), read-out: % GPCR activation compared to TPA
[8] = GPR83 (G Protein-Coupled Receptor 83), read-out: % GPCR activation compared to TPA
[9] = GPCR α1D (adrenoceptor alpha 1D), read-out: % GPCR activation compared to TPA
[10] = NPBWR2 (neuropeptides B and W receptor 2), read-out: % GPCR activation compared to TPA
[11] = GPR37 (G protein-coupled receptor 37), read-out: % GPCR activation compared to TPA
[12] = read-out: % GPCR activation compared to TPA, ELTD1 (EGF, latrophilin and seven transmembrane domain containing 1)
[13] = read-out: % GPCR activation compared to TPA, GPR83 (G Protein-Coupled Receptor 83)
[14] = read-out: % GPCR activation compared to TPA, GPCR α1D (adrenoceptor alpha 1D)
[15] = read-out: % GPCR activation compared to TPA, NPBWR2 (neuropeptides B and W receptor 2)
[16] = read-out: % GPCR activation compared to TPA, GPR37 (G protein-coupled receptor 37)

T5 sequence (P48146 whole entry): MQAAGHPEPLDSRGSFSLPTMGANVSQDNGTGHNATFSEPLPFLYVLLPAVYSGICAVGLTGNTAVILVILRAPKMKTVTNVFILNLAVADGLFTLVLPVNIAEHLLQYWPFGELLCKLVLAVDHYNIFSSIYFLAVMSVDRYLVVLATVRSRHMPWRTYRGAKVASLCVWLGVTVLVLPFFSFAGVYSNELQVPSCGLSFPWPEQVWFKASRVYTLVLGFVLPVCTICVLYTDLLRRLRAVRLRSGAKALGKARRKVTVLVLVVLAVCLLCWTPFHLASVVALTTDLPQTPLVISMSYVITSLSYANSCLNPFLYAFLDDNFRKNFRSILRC
T3 sequence (Q9NYM4 17-423): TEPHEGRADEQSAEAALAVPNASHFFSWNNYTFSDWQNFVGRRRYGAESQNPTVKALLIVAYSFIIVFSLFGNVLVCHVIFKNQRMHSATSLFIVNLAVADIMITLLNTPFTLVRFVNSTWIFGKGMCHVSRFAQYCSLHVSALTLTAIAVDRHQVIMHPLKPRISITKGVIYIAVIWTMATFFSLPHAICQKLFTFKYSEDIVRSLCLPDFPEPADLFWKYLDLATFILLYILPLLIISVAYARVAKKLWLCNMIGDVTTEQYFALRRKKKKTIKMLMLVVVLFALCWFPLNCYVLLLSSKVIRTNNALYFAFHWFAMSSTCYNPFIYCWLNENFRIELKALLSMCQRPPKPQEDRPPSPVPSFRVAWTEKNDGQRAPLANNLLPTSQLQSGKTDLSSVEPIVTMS

Row | SMILES | activation at 100 µM [2, 7] [%] | activation at 100 µM [3, 8] [%] | activation at 10 µM [4, 9] [%] | activation at 10 µM [5, 10] [%] | activation at 10 µM [6, 11] [%] | % GPCR activation compared to TPA ([1]; 100μM) [%] | activation at 100 µM ([4]; GPCR α1D (adrenoceptor alpha 1D), 100μM, read-out: % GPCR activation compared to TPA) [%] | % GPCR activation compared to TPA ([1]; 10µM) [%] | activation at 100 µM [2, 12] [%] | activation at 100 µM [3, 13] [%] | activation at 10 µM [4, 14] [%] | activation at 10 µM [5, 15] [%] | activation at 10 µM [6, 16] [%]
1 | CCC(CC)COC(=O)[C@H](C)N[P@](=O)(OC[C@H]1O[C@@](C#N)(c2ccc3c(N)ncnn23)[C@H](O)[C@@H]1O)Oc1ccccc1 [remdesivir] | – | – | – | – | – | – | – | 2.076 | 0.0637 | -2.36 | 1.67 | -4.48 | -0.881
2 | CC(C)OC(=O)[C@H](C)N[P@](=O)(OC[C@H]1O[C@@H](n2ccc(=O)[nH]c2=O)[C@](C)(F)[C@@H]1O)Oc1ccccc1 [sofosbuvir] | – | – | – | – | – | – | – | 0.2471 | 0.08 | -0.627 | 0.0197 | -2.75 | -2.61

Second part, led by results:

Row | activation at 100 µM [2, 7] [%] | activation at 100 µM [3, 8] [%] | activation at 10 µM [4, 9] [%] | activation at 10 µM [5, 10] [%] | activation at 10 µM [6, 11] [%] | % GPCR activation compared to TPA ([1]; 100μM) [%] | activation at 100 µM ([4]; GPCR α1D (adrenoceptor alpha 1D), 100μM, read-out: % GPCR activation compared to TPA) [%] | SMILES | % GPCR activation compared to TPA ([1]; 10µM) [%] | activation at 100 µM [2, 12] [%] | activation at 100 µM [3, 13] [%] | activation at 10 µM [4, 14] [%] | activation at 10 µM [5, 15] [%] | activation at 10 µM [6, 16] [%]
3 | -0.971 | -1.11 | -1.11 | -1.66 | -2.53 | – | – | N#C[C@@]1(c2ccc3c(N)ncnn23)O[C@H](CO)[C@@H](O)[C@H]1O [GS441524] | -0.5209 | – | – | – | – | –
4 | -0.0903 | -2.15 | – | -4.53 | -0.655 | 0.06344 | 1.16 | NC(=O)c1nc(F)cnc1O [favipiravir, 6-fluoro-3-hydroxy-2-pyrazinecarboxamide] | – | – | – | – | – | –
5 | -0.0765 | -2.02 | 0.273 | -2.92 | -2.05 | – | – | CC(C)C(=O)OC[C@H]1O[C@@H](n2ccc(NO)nc2=O)[C@H](O)[C@@H]1O [molnupiravir] | -0.5795 | – | – | – | – | –

Reference: paper PMC10175918 (Communications Biology, 2023)
